Measurements from patent US20100093650A1, “Pharmaceutical Anit-Infective Composition for Inhalation” (LABORATORIES SMB S.A., priority 2006, published 2010).

Columns and labels:
[1] = system: 12 day biofilm of Pseudomonas aeruginosa; experiment: Bacterial count (CFU/ml) of 12-day biofilm after 24 hours with the products; type: cell-based; conditions: for bacterial count in biofilm (CFU/ml × 10^7): 24 hours; for decrease of the number of CFU/ml of the 12-day biofilm versus the positive control: concentrations of Table 1 (tobramycin 4 μg/ml; clarithromycin 100, 200, 500 μg/ml; combinations)
From the text: (§1) Biofilms of Pseudomonas aeruginosa—strain PY O1 were formed according to the methods described by Ceri et al, the calgary biofilm device: new technology for rapid determination of antibiotic susceptibilities of bacterial biofilms, Journal of clinical microbiology, pp. 1771-1776, 1999 and Abdi-Ali et al, bactericidal activity of various antibiotics against biofilm-producing Pseudomonas aeruginosa, International Journal of Antimicrobial Agents 27, 196-200, 2006.
(§2) PY O1: is a cystic Fibrosis clinical mucoid strain of Pseudomonas aeruginosa received from the Erasme Hospital, Brussels.
After having shown that the number of Pseudomonas aeruginosa within the biofilms was stable after 12 days, the products listed in Table 1 were added to the media for the duration of 24 hours. Thereafter the biofilm was rinsed three times with a 0.01 M phosphate buffer adjusted at pH 7.5 in order to remove all cells not bound to the biofilm. The microplate was then placed on ultrasonic bath at 35° C. for 5 minutes to allow the bacteria present in the biofilm to separate from such biofilm. A bacterial count was then performed (number of coloning forming unit CFU/ml). Each experience was done twice and the CFU counting was also repeated twice/experience.

[2] = Particle size by laser diffraction; type: physicochemical; conditions: micronized, measured by laser diffraction
From the text: A dry powder composition for inhalation of tobramycin and clarithromycin was formulated using micronized tobramycin supplied by Teva Plantex (Israel). Clarithromycin was supplied by Teva Plantex (Israel) in a non-micronized form. Clarithromycin was then micronized using the micronizer MC-one® (JetpHarma, Switerland). […] The micronisation parameters were a pressure of 10 bars in the Venturi, a pressure of 8 bars in the ring and a feeding rate of 5 g/minute. The mean particle size of the micronized clarithromycin obtained (measured by laser diffraction) was 1.6 μm.

[3] = In vitro lung deposition, Multistage Liquid Impinger (MLI); type: physicochemical; conditions: for lung concentration per capsule: estimated from lung deposition with about 100 ml epithelial liquid in the lung, composition of example 6
From the text: The amount of macrolide agent inhaled shall be high enough to affect, in some way, the biofilm. It has to be noted that as the effect of macrolide derivatives on the biofilm is mediated through a non-antibacterial mechanism. […] Nevertheless, it is a another object of the present invention to provide a composition containing high concentrations (or amounts) of each of the aminoglycoside derivative and of the macrolide derivative i.e. at least more than 10%, preferably more than 15%, and more preferably more than 20% of the dry powder composition. It is indeed particularly interesting to achieve high lung doses of those therapeutic agents with the minimum amounts of inhalations because it makes the administration easier and more importantly increase the patient's compliance. It also decreases the nominal dose of each active ingredient and thus the adverse effects linked to these actives. In the present invention, the dry powder inhaler also provides a high Fine Particle Dose (FPD) and Fine Particle […] (FPF) when tested in vitro on a Multistage Liquid Impinger (MLI, Eur. Pharm, 5th Edition, chapter 2.9.18). The FPD and FPF are the parameters that predict in vivo lung deposition.
The in vitro lung deposition test was performed using equipment and conditions as described in the European Pharmacopoeia (5th edition, chapter 2.9.18—apparatus C). This equipment consists of a Multistage Liquid Impinger (MLI) and was operated with an air flow of 100 L/min during a period of time of 2.4 seconds to simulate inhalation capabilities of patients. The quantification of the deposition of each drug on each stage of the MLI was performed by HPLC equipped with a a Corona detector.

[4] = system: planktonic Pseudomonas aeruginosa; experiment: MIC on planktonic bacteria (NCCLS dilution method); type: cell-based
Experimental: as §2
The determination of the minimal inhibitory concentration (MIC) is performed according to the standard of NCCLS (NCCLS, Methods for dilution Antimicrobial Susceptibility Tests for bacteria that grow aerobically; approved standards, sixth edition, M7-A6, vol. 23 no.2, January 2003.

[5] = system: 12 day old Pseudomonas aeruginosa biofilm; experiment: MIC on 12 day old biofilm; type: cell-based
From the text: as §1, §2
In a second experiment using the same modus operandi as above, we measured the MIC of Tobramycin on a 12 day old Pseudomonas aeruginosa biofilm. This situation is much closer to the situation observed in vivo in chronic respiratory diseases like Cystic Fibrosis.

[6] = MLI1, example 6 capsule 10 mg/10 mg, MLI 100 L/min
[7] = MLI2, example 6 capsule 10 mg/10 mg, MLI 100 L/min
[8] = MLI3, example 6 capsule 10 mg/10 mg, MLI 100 L/min
[9] = Mean (n = 3), example 6 capsule 10 mg/10 mg, MLI 100 L/min
[10] = composition of example 6, MLI 100 L/min

SMILES: CC[C@H]1OC(=O)[C@H](C)[C@@H](O[C@H]2C[C@@](C)(OC)[C@@H](O)[C@H](C)O2)[C@H](C)[C@@H](O[C@@H]2O[C@H](C)C[C@H](N(C)C)[C@H]2O)[C@](C)(OC)C[C@@H](C)C(=O)[C@H](C)[C@@H](O)[C@]1(C)O [Clarithromycin]
- bacterial count in biofilm (CFU/ml × 10^7) ([1]; C 100 μg/ml, 12 day biofilm): 14 CFU × 10^7
- bacterial count in biofilm (CFU/ml × 10^7) ([1]; C 200 μg/ml, 12 day biofilm): 10 CFU × 10^7
- bacterial count in biofilm (CFU/ml × 10^7) ([1]; C 500 μg/ml, 12 day biofilm): 7 CFU × 10^7
- decrease of the number of CFU/ml of the 12-day biofilm versus the positive control [1]: neither tobramycin 4 μg/ml nor clarithromycin at 100, 200 and 500 μg/ml alone are able to decrease the number of CFU/m1
- mean particle size [2]: 1.6 μm
- Device deposition [3, 6]: 1.155 mg
- FPD [3, 6]: 3.14 mg
- FPF [3, 6]: 31.4%
- Filter deposition [3, 6]: 0.478 mg
- Stage 1 deposition [3, 6]: 1.338 mg
- Stage 2 deposition [3, 6]: 0.664 mg
- Stage 3 deposition [3, 6]: 1.715 mg
- Stage 4 deposition [3, 6]: 1.162 mg
- Throat deposition [3, 6]: 1.025 mg
- Device deposition [3, 7]: 1.048 mg
- FPD [3, 7]: 3.76 mg
- FPF [3, 7]: 37.6%
- Filter deposition [3, 7]: 0.598 mg
- Stage 1 deposition [3, 7]: 1.566 mg
- Stage 2 deposition [3, 7]: 0.845 mg
- Stage 3 deposition [3, 7]: 1.891 mg
- Stage 4 deposition [3, 7]: 1.482 mg
- Throat deposition [3, 7]: 1.134 mg
- Device deposition [3, 8]: 1.433 mg
- FPD [3, 8]: 3.98 mg
- FPF [3, 8]: 39.9%
- Filter deposition [3, 8]: 0.574 mg
- Stage 1 deposition [3, 8]: 1.352 mg
- Stage 2 deposition [3, 8]: 0.680 mg
- Stage 3 deposition [3, 8]: 2.078 mg
- Stage 4 deposition [3, 8]: 1.533 mg
- Throat deposition [3, 8]: 1.223 mg
- Device deposition [3, 9]: 1.212 mg
- FPD [3, 9]: 3.63 mg
- FPF [3, 9]: 36.3%
- Filter deposition [3, 9]: 0.550 mg
- Stage 1 deposition [3, 9]: 1.419 mg
- Stage 2 deposition [3, 9]: 0.729 mg
- Stage 3 deposition [3, 9]: 1.895 mg
- Stage 4 deposition [3, 9]: 1.392 mg
- Throat deposition [3, 9]: 1.127 mg
- FPD/capsule [3, 10]: 3.63 mg
- FPF [3, 10]: 36.3%
- lung concentration per capsule [3]: 36.3 µg/mL
- sensitivity of the bacterium (MIC could not be determined) [4]: not sensitive

SMILES: NC[C@H]1O[C@H](O[C@H]2[C@H](O)[C@@H](O[C@H]3O[C@H](CO)[C@@H](O)[C@H](N)[C@H]3O)[C@H](N)C[C@@H]2N)[C@H](N)C[C@@H]1O [Tobramycin]
- bacterial count in biofilm (CFU/ml × 10^7) ([1]; T 4 μg/ml, 12 day biofilm): 25 CFU × 10^7
- decrease of the number of CFU/ml of the 12-day biofilm versus the positive control [1]: neither tobramycin 4 μg/ml nor clarithromycin at 100, 200 and 500 μg/ml alone are able to decrease the number of CFU/m1
- number of CFU/ml ([1]; tobramycin alone at 4 μg/ml, 12 day biofilm): around 2.5×10^8 CFU/ml
- Device deposition [3, 6]: 1.035 mg
- FPD [3, 6]: 3.60 mg
- FPF [3, 6]: 36%
- Filter deposition [3, 6]: 0.664 mg
- Stage 1 deposition [3, 6]: 1.760 mg
- Stage 2 deposition [3, 6]: 0.614 mg
- Stage 3 deposition [3, 6]: 1.512 mg
- Stage 4 deposition [3, 6]: 1.598 mg
- Throat deposition [3, 6]: 0.929 mg
- Device deposition [3, 7]: 0.938 mg
- FPD [3, 7]: 4.45 mg
- FPF [3, 7]: 44.5%
- Filter deposition [3, 7]: 0.838 mg
- Stage 1 deposition [3, 7]: 1.837 mg
- Stage 2 deposition [3, 7]: 0.726 mg
- Stage 3 deposition [3, 7]: 1.818 mg
- Stage 4 deposition [3, 7]: 1.965 mg
- Throat deposition [3, 7]: 0.859 mg
- Device deposition [3, 8]: 1.272 mg
- FPD [3, 8]: 4.72 mg
- FPF [3, 8]: 47.2%
- Filter deposition [3, 8]: 0.778 mg
- Stage 1 deposition [3, 8]: 1.546 mg
- Stage 2 deposition [3, 8]: 0.606 mg
- Stage 3 deposition [3, 8]: 1.895 mg
- Stage 4 deposition [3, 8]: 2.202 mg
- Throat deposition [3, 8]: 0.771 mg
- Device deposition [3, 9]: 1.082 mg
- FPD [3, 9]: 4.26 mg
- FPF [3, 9]: 42.5%
- Filter deposition [3, 9]: 0.760 mg
- Stage 1 deposition [3, 9]: 1.714 mg
- Stage 2 deposition [3, 9]: 0.648 mg
- Stage 3 deposition [3, 9]: 1.742 mg
- Stage 4 deposition [3, 9]: 1.922 mg
- Throat deposition [3, 9]: 0.853 mg
- FPD/capsule [3, 10]: 4.26 mg
- FPF [3, 10]: 42.5%
- lung concentration per capsule [3]: 42.6 µg/mL
- activity (MIC) on 12 day old biofilm [5]: no longer active
